From patent US9427415B2, “Methods and compositions for modifying sensorial perception” (The Procter & Gamble Company, priority 2014, dated 2016)
Several values for one entry are separate records, joined by “and”; a condition that tells them apart may be missing. Identical values can stand only once. Like-named read-outs stand apart in the source and are kept apart here.

Tests used:
TRPA1V1 = experiment: Intracellular calcium (Fluo-4, FLIPR) activation of TRPA1V1 cells (co-expressing TRPA1 and TRPV1) by GRAS compounds; format: cell-based, human; conditions: relative to AITC 30 μM;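 note: HEK293 cells co-expressing TRPA1 and TRPV1, fluorescence read at 488/514 nm after baseline subtraction, recorded every 2 s over 10 min, ionomycin 10 µM and buffer as controls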
human TRPA1 = target: T1, human TRPA1 (Homo sapiens, UniProt O75762, K186N/R3C/R58T); experiment: Intracellular calcium (Fluo-4, FLIPR) activation of TRPA1 cells by GRAS compounds; format: cell-based; conditions: relative to AITC 30 μM; for A1 activation, % of agonist value / activation at 1000 µM: 1 mM; for activation at 1000 µM / activation at 100 µM: read-out: A1 activation, % of agonist value;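 for all read-outs here: TRPA1-expressing cells, fluorescence read on a FLIPR Tetra (ex 488 nm, em 514 nm) every 2 s for 10 min after compound addition, baseline subtracted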
T1 construct: expressed in transfected cells; pcDNA3 control cells
T1 sequence (O75762 whole entry R3C/R58T/K186N): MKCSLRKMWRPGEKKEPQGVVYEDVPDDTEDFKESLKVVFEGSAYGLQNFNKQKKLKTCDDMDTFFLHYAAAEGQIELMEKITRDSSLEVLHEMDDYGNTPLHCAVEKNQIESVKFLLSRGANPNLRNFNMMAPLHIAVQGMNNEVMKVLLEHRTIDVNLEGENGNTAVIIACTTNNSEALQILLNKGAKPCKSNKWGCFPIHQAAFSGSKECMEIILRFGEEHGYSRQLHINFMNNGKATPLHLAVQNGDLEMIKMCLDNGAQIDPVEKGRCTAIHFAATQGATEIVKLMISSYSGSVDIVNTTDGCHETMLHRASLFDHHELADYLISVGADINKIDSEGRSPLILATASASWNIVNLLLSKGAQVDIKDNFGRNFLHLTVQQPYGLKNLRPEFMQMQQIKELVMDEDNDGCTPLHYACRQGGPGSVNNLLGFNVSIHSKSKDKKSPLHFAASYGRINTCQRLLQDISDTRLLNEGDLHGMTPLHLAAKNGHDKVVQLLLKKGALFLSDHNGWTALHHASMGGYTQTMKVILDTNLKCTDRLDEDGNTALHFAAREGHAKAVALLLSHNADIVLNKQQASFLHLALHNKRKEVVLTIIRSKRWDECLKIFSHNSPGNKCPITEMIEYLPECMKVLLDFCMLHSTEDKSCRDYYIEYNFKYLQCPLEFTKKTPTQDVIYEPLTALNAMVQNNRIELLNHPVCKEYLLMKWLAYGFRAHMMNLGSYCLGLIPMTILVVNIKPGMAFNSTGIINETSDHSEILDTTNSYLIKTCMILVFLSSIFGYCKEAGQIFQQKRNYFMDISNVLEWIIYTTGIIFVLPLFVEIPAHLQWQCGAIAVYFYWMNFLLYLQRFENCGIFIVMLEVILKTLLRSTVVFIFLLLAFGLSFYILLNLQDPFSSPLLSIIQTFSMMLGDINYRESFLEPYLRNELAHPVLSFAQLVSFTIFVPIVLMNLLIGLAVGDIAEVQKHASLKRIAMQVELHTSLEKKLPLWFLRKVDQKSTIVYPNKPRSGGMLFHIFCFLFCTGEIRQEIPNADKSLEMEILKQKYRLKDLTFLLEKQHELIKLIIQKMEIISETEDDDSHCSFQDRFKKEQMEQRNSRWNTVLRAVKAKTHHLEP

Row | Compound | A1V1 activation, % of agonist value (TRPA1V1; Table 1(c), 1 mM) | activation at 1000 µM (human TRPA1; Table 1(c)) | other results
1 | COc1ccccc1C=CC=O [O-Methoxycinnamaldehyde] | 55.99% |  | A1 activation, % of agonist value (human TRPA1; Table 1(c)): 65.3%
2 | C=C1CC/C=C(\C)CC[C@@H]2[C@@H]1CC2(C)C [beta-Caryophyllene] |  |  | A1V1 activation, % of agonist value (TRPA1V1; Table 1(d), 1 mM): 103.8%; activation at 1000 µM (human TRPA1; Table 1(d)): 134%
3 | C=C(C)CCCC(C)CCOC(C)=O (centres unmarked) [Rhodinyl acetate] | 89.69% |  | A1 activation, % of agonist value (human TRPA1; Table 1(c)): 89.06%
4 | CCCCCCCCCCC=CC=O [2-Tridecenal] | 102% and 101% |  | A1V1 activation, % of agonist value (TRPA1V1; Table 1(d), 100 μM (*)): 43.5%; activation at 100 µM (human TRPA1; Table 1(d)): 76.3%
5 | COC(=O)c1ccc(OC)cc1 [Methyl p-anisate] | 66.24% | 57.5% | 
6 | CCC(=O)OCc1ccccc1 [Benzyl propionate] | 90.7% | 103% | 
7 | CCCCC/C=C\CCO [Cis-3-nonen-1-ol] |  |  | A1V1 activation, % of agonist value (TRPA1V1; Table 1(d), 1 mM): 41.22%; activation at 1000 µM (human TRPA1; Table 1(d)): 55%
8 | CC(C=O)c1ccccc1 (centres unmarked) [2-Phenylpropionaldehyde] | 106.9% | 105% | 
9 | O=C(OCCc1ccccc1)c1ccco1 [2-Furoic acid, phenethyl ester] | 145% | 155% | 
10 | CCC(=O)Oc1c(C)occc1=O [Maltol propionate] | 81.97% |  | A1 activation, % of agonist value (human TRPA1; Table 1(c)): 85.04%
11 | CCCCCCCCCC(=O)O [Decanoic acid] | 73.45% | 65.1% | 
12 | C=CCOC(=O)Cc1ccccc1 [Allyl phenylacetate] | 84.14% | 86.2% | 
13 | CC/C=C\CC/C=C/C(OCC)OCC [2,6-Nonadiene, 1,1-diethoxy-, (E,Z)-] | 74.31% | 89.3% | 
14 | COc1ccc(C=O)cc1OC [Veratraldehyde] | 69.76% | 73.8% | 
15 | CC(=O)c1ccc2ccccc2c1 [2-Acetylnaphthalene] | 69.41% | 60.3% | 
16 | C/C=C(\C)C(=O)OC(CC)CCCCC (centres unmarked) [1-Ethylhexyl Tiglate] |  |  | A1V1 activation, % of agonist value (TRPA1V1; Table 1(d), 1 mM): 31.87%; activation at 1000 µM (human TRPA1; Table 1(d)): 50.6%
17 | C=CCc1ccc(OC(C)=O)c(OC)c1 [Eugenyl acetate] | 83.94% | 75.4% | 
18 | CCCCCCCCCC(C)C=O (centres unmarked) [2-Methylundecanal] |  |  | A1V1 activation, % of agonist value (TRPA1V1; Table 1(c), 100 μM (*)): 57.3%; activation at 100 µM (human TRPA1; Table 1(c)): 54.9%
19 | CSCCC=O [3-(Methylthio)propionaldehyde] |  |  | A1V1 activation, % of agonist value (TRPA1V1; Table 1(d), 1 mM): 32.4%; activation at 1000 µM (human TRPA1; Table 1(d)): 53.8%
20 | CC(=O)c1ccc(O)cc1 [p-Hydroxyacetophenone] | 49.38% | 52.8% | 
21 | CCCCCCOC(=O)c1cccnc1 [Hexyl nicotinate] |  |  | A1V1 activation, % of agonist value (TRPA1V1; Table 1(d), 1 mM): 54.4%; activation at 1000 µM (human TRPA1; Table 1(d)): 72.9%
22 | CC(=O)SCc1ccco1 [Furfurylthiol acetate] |  |  | A1V1 activation, % of agonist value (TRPA1V1; Table 1(d), 1 mM): 60%; A1 activation, % of agonist value (human TRPA1; Table 1(d)): 75.5%
23 | SCCCCCCS [1,6-Hexanedithiol] | 54% | 68.6% | 
24 | CC=CC(=O)CC [2-Hexen-4-one] |  |  | A1V1 activation, % of agonist value (TRPA1V1; Table 1(d), 1 mM): 24.5%; activation at 1000 µM (human TRPA1; Table 1(d)): 53%
25 | Cc1c[nH]c2ccccc12 [Skatole] | 102.9% | 116% | A1V1 activation, % of agonist value (TRPA1V1; Table 1(c), 100 μM (*)): 71.4%; activation at 100 µM (human TRPA1; Table 1(c)): 66.2%
26 | CC(=O)O[C@@H]1C[C@H](C)CC[C@H]1C(C)C [L-Menthyl acetate] |  |  | A1V1 activation, % of agonist value (TRPA1V1; Table 1(e), 1 mM): 60.47%; A1 activation, % of agonist value (human TRPA1; Table 1(e)): 44.88%

Row | Compound | A1V1 activation, % of agonist value (TRPA1V1; Table 1(c), 1 mM) | activation at 1000 µM (human TRPA1; Table 1(c)) | other results
27 | CC(=O)CCC1=C(C)CCCC1(C)C [Dihydro-beta-ionone] | 64.07% |  | A1 activation, % of agonist value (human TRPA1; Table 1(c)): 64.4%
28 | CCC(=O)OCCOc1ccccc1 [Phenoxyethyl propionate] | 79.34% | 65.5% | 
29 | C=CCCC(=O)/C=C/C1C(C)=CCCC1(C)C (stereo not drawn) [Allyl-alpha-ionone] |  |  | A1V1 activation, % of agonist value (TRPA1V1; Table 1(e), 1 mM): 89.7%; A1 activation, % of agonist value (human TRPA1; Table 1(e)): 52.6%
30 | CC(=O)/C=C/C1C(C)=CCCC1(C)C (racemic) [(+/−)-Alpha-Ionone] | 64.21% |  | A1 activation, % of agonist value (human TRPA1; Table 1(c)): 64.62%
31 | C=CCOC(=O)c1ccccc1N [Allyl anthranilate] | 75.03% | 73.8% | 
32 | CCCC/C=C/C=O [(E)-2-Heptenal] | 96.6% | 112% | 
33 | C=CC(C)(CCC=C(C)C)OC(=O)c1ccccc1 (centres unmarked) [Linalyl benzoate] |  |  | A1V1 activation, % of agonist value (TRPA1V1; Table 1(c), 100 μM (*)): 55.3%; activation at 100 µM (human TRPA1; Table 1(c)): 44.4%
34 | O=CC=Cc1ccco1 [3-(2-Furyl)acrolein] | 66.5% | 68.4% | 
35 | CC1=CCCC(C)(C)C12CCC(C)O2 (centres unmarked) [Theaspirane] | 84% |  | A1 activation, % of agonist value (human TRPA1; Table 1(c)): 99%
36 | CCCC=CC(C)=O [3-Hepten-2-one] |  |  | A1V1 activation, % of agonist value (TRPA1V1; Table 1(d), 1 mM): 59%; activation at 1000 µM (human TRPA1; Table 1(d)): 82%
37 | CC/C=C/C=C/CO [(E,E)-Hepta-2,4-dien-1-ol] | 133.3% | 146% | 
38 | CCCCCCCCCO [Nonyl alcohol] | 69.4% | 71.1% | 
39 | Myrtenal | 111.3% |  | A1 activation, % of agonist value (human TRPA1; Table 1(c)): 95.8%
40 | CC1=C(C=O)C(C)(C)CC=C1 [Safranal] | 74.5% |  | A1 activation, % of agonist value (human TRPA1; Table 1(c)): 73%
41 | CC/C=C\CCOC(=O)C/C=C\CC [cis-3-Hexenyl cis-3-hexenoate] | 97.4% | 107% | 
42 | COC(=O)c1ccc(O)cc1 [Methylparaben] | 66.33% | 62% | 
43 | CC(C)=CCCC(C)C=O (centres unmarked) [Melonal] | 57% |  | A1 activation, % of agonist value (human TRPA1; Table 1(c)): 52%
44 | Cc1ccc(C(C)O)cc1 (stereo not drawn) [Benzyl alcohol, p,alpha-dimethyl-] | 71.8% |  | A1 activation, % of agonist value (human TRPA1; Table 1(c)): 77.2%
45 | CCCCCC(=O)c1ccco1 [2-Hexanoylfuran] | 109% | 118% | 
46 | COC(=O)c1ccccc1NC=O [Methyl o-formamidobenzoate] | 75.64% | 75.4% | 
47 | CC(C)=CCC[C@](C)(O)[C@@H]1CC=C(C)CC1 [(−)-Alpha-Bisabolol] | 83.53% |  | A1 activation, % of agonist value (human TRPA1; Table 1(c)): 71.26%
48 | CC(C)[C@@H]1CC[C@@H](C)C[C@H]1O (racemic) [DL-Menthol] | 43.05% |  | A1 activation, % of agonist value (human TRPA1; Table 1(c)): 54.02%
49 | CCCC(=O)OCc1ccccc1 [Benzyl butyrate] | 64.7% | 70% | 
50 | C=C(C)[C@@H]1CCC2=CCC[C@@H](C)[C@]2(C)C1 [Valencene] | 66.32% |  | A1 activation, % of agonist value (human TRPA1; Table 1(c)): 61.97%
51 | O=C(O)C=Cc1ccccc1 [Cinnamic acid] | 42.5% | 37.7% | 
52 | C=C(C)[C@@H]1CC=C(C=O)CC1 [L-Perillaldehyde] | 138.2% |  | A1 activation, % of agonist value (human TRPA1; Table 1(c)): 127.7%
